Several values for one entry are separate records, joined by “and”; a condition that tells them apart may be missing. Identical values can stand only once.
Experiments:
[1] = tested on: C4Ma3 (collagen Type 4); assay: 12-week study NCT03636347: collagen degradation biomarker C4Ma3; assay type: in vivo, human; settings: alvelestat at week 12, three treatment arms pooled, N = 17; ANCOVA
Protocol: (§1) An aspect of NCT03636347 was to investigate the effect of alvelestat on collagen biomarkers in patients with PiZZ, null or rare variant phenotype/genotype alpha-1 anti-trypsin deficient lung disease. % Change from baseline in a number collagen degradation biomarkers were measured over a 12 week period in alvelestat and placebo arms. Inclusion criteria: patients (18 Years to 75 Years) with a confirmed diagnosis of alpha-1-anti-trypsin deficiency and a PiZZ, null or other rare geno/phenotype and serum […] levels of less than 11 uM; FEV1≥20% predicted; Computerised tomography (CT) scan evidence of emphysema; and non-smokers. Alvelestat was given orally at 120 mg twice daily, 240 mg twice daily, or dose escalation up to 240 mg twice daily, so there were three alvelestat treatment arms. Collagen degradation biomarkers […] (collagen Type 1), […] (collagen Type 6), […] (collagen Type 4) C3M (collagen Type 3) were collected at baseline (e.g. before treatment with alvelestat or placebo) and after 12 weeks following treatment with alvelestat or placebo. Biomarkers related to C3M and […] were measured by competitive Enzyme Linked Immunosorbant Assay (ELISA) (Nordic Biosciences, Denmark).[1] Biomarkers related to […] and […] were measured with Nordic Bioscience assays [Chest. […] C1M, […] concentrations were measured in ng/mL. […]

[2] = tested on: C1M (collagen Type 1); assay: 12-week study NCT03636347: collagen degradation biomarker C1M; assay type: in vivo, human; settings: alvelestat at week 12, three treatment arms pooled, N = 32; alpha-1 anti-trypsin deficient lung disease; ANCOVA
Protocol: as §1

[3] = tested on: C6M (collagen Type 6); assay: 12-week study NCT03636347: collagen degradation biomarker C6M; assay type: in vivo, human; settings: alvelestat at week 12, three treatment arms pooled, N = 36; ANCOVA
Protocol: as §1

[4] = tested on: PRO-C3; assay: Phase 1b study: collagen type 3 synthesis biomarker PRO-C3 (and PRO-C3:C3M ratio) by competitive ELISA; assay type: in vivo, human
Protocol: (§2) Patients age ≥18 years with BOS and chronic GVHD after HCT were recruited to the National Cancer Institute protocol (NCT02669251). This phase 1 study had 2 parts: 8-week intra-patient dose escalation period, followed by a continuation period that allowed for up to 6 months of treatment. Alvelestat was given orally starting at 60 mg twice daily, increased every 2 weeks to 120 mg twice daily, 180 mg twice daily, and finally 240 mg twice daily.
(§3) Blood biomarkers for neutrophil elastase activity, desmosine, isodesmosine, PRO-C3 and PRO-C6, were collected at baseline (pre-treatment with alvelestat) and after every 2 weeks during alvelestat dose escalations i.e. after 60 mg bid, 120 mg bid, 180 mg bid and 240 mg bid.
(§4) Biomarkers of novel epitopes (neoepitopes) related to collagen turnover and fibrosis (PRO-C6, PRO-C3, C3M, and C6M) were measured by competitive Enzyme Linked Immunosorbant Assay (ELISA) (Nordic Biosciences, Denmark).[1]

[5] = target: T1, Neutrophil Elastase (NE) (Homo sapiens, UniProt P08246); assay: Phase 1b study: ex-vivo zymosan-stimulated neutrophil elastase activity in whole blood; design: induce degranulation of white blood cells including neutrophils, releasing an excess of free active NE into the plasma; from tissue; host or cells: whole blood of patients (neutrophils degranulated with zymosan); plasma measured with ProteaseTag Active Neutrophil Elastase Immunoassay (ProAxsis Ltd); settings: FIG. 2
T1 sequence (P08246 30-267): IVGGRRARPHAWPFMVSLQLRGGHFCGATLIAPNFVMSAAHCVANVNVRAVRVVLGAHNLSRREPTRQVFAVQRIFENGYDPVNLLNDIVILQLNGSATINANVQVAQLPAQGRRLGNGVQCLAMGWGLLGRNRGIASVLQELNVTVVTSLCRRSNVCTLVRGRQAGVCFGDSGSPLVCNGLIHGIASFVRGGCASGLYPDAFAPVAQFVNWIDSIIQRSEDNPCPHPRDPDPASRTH
Protocol: Patients age ≥18 years with BOS and chronic GVHD after HCT were recruited to the National Cancer Institute protocol (NCT02669251). […] Alvelestat was given orally starting at 60 mg twice daily, increased every 2 weeks to 120 mg twice daily, 180 mg twice daily, and finally 240 mg twice daily.
as §3
Ex-vivo zymosan-stimulated Neutrophil Elastase (NE) activity was measured by the following assay: zymosan was added to whole blood to induce degranulation of white blood cells including neutrophils, releasing an excess of free active NE into the plasma. The blood was centrifuged and plasma removed. The level of NE in the plasma sample was measured by the ProteaseTag® Active Neutrophil Elastase Immunoassay (ProAxsis Ltd, Belfast, Northern Ireland).

[6] = tested on: C3M (collagen Type 3); assay: 12-week study NCT03636347: collagen degradation biomarker C3M; assay type: in vivo, human; settings: alvelestat at week 12, three treatment arms pooled, N = 34; ANCOVA
Protocol: as §1

[7] = from WO2021/053058, Examples 1-5; cited from earlier work
[8] = tested on: PRO-C6; assay: Phase 1b study: collagen type 6 synthesis biomarker PRO-C6 by competitive ELISA; assay type: in vivo, human; settings: above ULN at baseline; during alvelestat treatment; FIG. 3B
Protocol: as §2, §3, §4

[9] = Phase 1b study in patients with BOS after HCT: tolerability and clinical outcome; assay type: in vivo
Protocol: as §2

[10] = target: T1, Neutrophil Elastase (NE); settings: from WO2021/053058, Examples 1-5; cited from earlier work
[11] = tested on: desmosine (DES) and isodesmosine (IDES); assay: Phase 1b study: plasma desmosine and isodesmosine by isotope-dilution LC/MS; assay type: in vivo, human
Protocol: as §2, §3
DES and IDES levels in the plasma were measured by an isotope-dilution, liquid-chromatography/mass spectrometry method (Huang et al Thorax 2012; 67:502-508).[12] [13]
Results are presented as Mean and Standard Error Mean (SEM). Samples were taken at baseline and at the end of each dose-escalation stage.

Compound: Cc1c(-c2ccnn2C)cc(C(=O)NCc2ccc(S(C)(=O)=O)cn2)c(=O)n1-c1cccc(C(F)(F)F)c1 [alvelestat, N-{[5-(methanesulfonyl)pyridin-2-yl]methyl}-6-methyl-5-(1-methyl-1H-pyrazol-5-yl)-2-oxo-1-[3-(trifluoromethyl)phenyl]-1,2-dihydropyridine-3-carboxamide]
- C4Ma3 change from baseline (%), LS Means (SE) [1]: −6.6 (8.96) %
- C1M change from baseline (%), LS Means (SE) [2]: −0.6% and −0.6 (49.42) %
- C6M change from baseline (%), LS Means (SE) [3]: 1.1% and 1.1 (5.52) %
- Collagen synthesis as measured by PRO-C3 ([4]; above ULN at baseline, during alvelestat treatment, FIG. 3A): declined
- Ratio of PRO-C3 to C3M ([4]; blood samples during the study, n=7, FIG. 4): decrease
- Ex vivo zymosan stimulated elastase activity, course ([5]; over the dose escalation period, N=7): progressive decrease
- Suppression of ex vivo zymosan stimulated elastase activity ([5]; some subjects, dose escalation period): 100%
- C3M change from baseline (%), LS Means (SE) [6]: −1.7 (4.08) %
- Effect against GVHD [7]: protective effect
- Collagen synthesis as measured by PRO-C6 [8]: declined
- Tolerability of dose escalation ([9]; all 7 patients, up to maximum dose 240 mg twice daily): able to tolerate dose escalation
- Lung disease outcome (FEV1% predicted at end of treatment no worse than 10% below baseline level) ([9]; the 6 patients with biomarker suppression): improved or stable lung disease
- Patients with consistent suppressive effect on biomarkers of elastase activity and collagen turnover ([9]; treated patients, phase 1b): 6 of 7
- Inhibition of neutrophil elastase (NE) [10]: potent and specific inhibitor
- DES and IDES plasma level, mean (SEM) ([11]; patients with BOS after HCT, N=7, week 8 of dose escalation 60 to 240 mg twice daily oral, baseline 0.464): 0.380 (SEM 0.0419) ng/ml
- DES and IDES mean within subject % change from baseline (CFB) ([11]; week 8 of dose escalation, SEM 6.794, FIG. 1): −16.2%
